In this assay the target is T1, indoleamine 2, 3-dioxygenase (IDO1) (Homo sapiens, UniProt P14902).
T1 construct: human peripheral blood mononuclear cells (PBMC) (PB003F; host or cells: human PBMC stimulated with IFN-gamma and LPS
Nature of the assay: PBMC IDO1 assay (kynurenine detection via mass spectrometry). Conditions: human PBMC stimulated with IFN-γ and LPS, 2 days, kynurenine by mass spectrometry; read-out: IDO1 PBMC pIC50 (converted). The class given is cell-based. Summed up: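 Kynurenine output, read by RapidFire mass spectrometry as a ratio to internal standard, reflected IDO1 activity in human PBMCs induced with 100 ng/ml IFN-γ plus 50 ng/ml LPS and dosed with compound (11 points, 3-fold) over 2 days. Cytotoxicity was tracked by CellTiter-Glo; XC50 values came from Hill-slope fits.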

T1 sequence (P14902 whole entry): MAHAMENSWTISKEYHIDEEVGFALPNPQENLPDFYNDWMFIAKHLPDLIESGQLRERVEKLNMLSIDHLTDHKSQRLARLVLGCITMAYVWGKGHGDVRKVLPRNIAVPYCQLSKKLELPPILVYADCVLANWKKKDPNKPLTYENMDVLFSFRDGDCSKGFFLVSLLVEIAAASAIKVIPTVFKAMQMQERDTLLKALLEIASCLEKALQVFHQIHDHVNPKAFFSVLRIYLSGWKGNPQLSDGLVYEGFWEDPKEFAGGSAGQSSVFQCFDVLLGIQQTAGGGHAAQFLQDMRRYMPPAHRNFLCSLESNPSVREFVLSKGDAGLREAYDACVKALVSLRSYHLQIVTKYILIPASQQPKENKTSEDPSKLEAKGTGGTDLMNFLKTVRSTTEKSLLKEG

In the case of `CCOC(=O)N1CCC(CC(NC(=O)c2ccc(F)cc2)c2ccc(OC)nc2)CC1` (stereo not drawn) [Example 85, ethyl 4-(2-(4-fluorobenzamido)-2-(6-methoxypyridin-3-yl)ethyl)piperidine-1-carboxylate], the IC50 is 20 nM.

Turning to `COc1ccc(C(=O)NC(CC2CCN(C(=O)OC(C)(C)C)CC2)c2ccccc2)cc1F` (stereo not drawn) [Example 109, tert-butyl 4-(2-(3-fluoro-4-methoxybenzamido)-2-phenylethyl)piperidine-1-carboxylate], the IC50 was 31.6 nM.

`C#Cc1ccc(C(=O)NC(CC2CCN(C(=O)OC(C)(C)C)CC2)c2ccccc2)cc1` (stereo not drawn) [Example 5, tert-butyl 4-(2-(4-ethynylbenzamido)-2-phenylethyl)piperidine-1-carboxylate]: the IC50 was 7.94 nM.

For `CC(C)(C)OC(=O)N1CCC(CC(NC(=O)c2ccc(F)cc2)c2ccc(OCc3ccccc3)nc2)CC1` (stereo not drawn) [Example 160, tert-butyl 4-(2-(6-(benzyloxy)pyridin-3-yl)-2-(4-fluorobenzamido)ethyl)piperidine-1-carboxylate], the IC50 was 100 nM.

In the case of `CC(C)(C)OC(=O)N1CCC(C[C@@H](NC(=O)c2ccc(Cl)cc2)c2ccccc2)CC1` [Example 234, (R)-tert-butyl 4-(2-(4-chlorobenzamido)-2-phenylethyl)piperidine-1-carboxylate], the IC50 was 794 nM.

With `CC(C)(C)OC(=O)N1CCC(CC(NC(=O)c2cc(Cl)cs2)c2ccccc2)CC1` (stereo not drawn) [Example 168, tert-butyl 4-(2-(4-chlorothiophene-2-carboxamido)-2-phenylethyl)piperidine-1-carboxylate], the IC50 was 100 nM.

Take `COc1ccc([C@H](CC2CCN(C(=O)CC(C)(C)C)CC2)NC(=O)c2ccc(Cl)s2)cn1` [Example 39, (S)-5-chloro-N-(2-(1-(3,3-dimethylbutanoyl)piperidin-4-yl)-1-(6-methoxypyridin-3-yl)ethyl)thiophene-2-carboxamide]: the IC50 was 5.01 nM.

Consider `CCN(CCOC)c1nnc(C(CC2CCN(C(=O)OC(C)(C)C)CC2)NC(=O)c2ccc(C)s2)o1` (stereo not drawn) [Example 82, tert-butyl 4-(2-(5-(ethyl(2-methoxyethyl)amino)-1,3,4-oxadiazol-2-yl)-2-(5-methylthiophene-2-carboxamido)ethyl)piperidine-1-carboxylate], for which the IC50 is 15.8 nM.

For `CC(C)(C)OC(=O)N1CCC(CC(NC(=O)c2ccc(C3CC3)cc2)c2ccccc2)CC1` (stereo not drawn) [Example 97, tert-butyl 4-(2-(4-cyclopropylbenzamido)-2-phenylethyl)piperidine-1-carboxylate], the IC50 was 25.1 nM.

As for `CC(C)(C)OC(=O)N1CCC(CC(NC(=O)c2ccc[nH]2)c2ccccc2)CC1` (stereo not drawn) [Example 220, tert-butyl 4-(2-phenyl-2-(1H-pyrrole-2-carboxamido)ethyl)piperidine-1-carboxylate], the IC50 is 501 nM.

For the compound `CC(C)(C)OC(=O)N1CCC(CC(NC(=O)c2ccc(I)cc2)c2ccccc2)CC1` (stereo not drawn) [Example 72, tert-butyl 4-(2-(4-iodobenzamido)-2-phenylethyl)piperidine-1-carboxylate], the IC50 was 15.8 nM.

Turning to `Cc1ccc(C(=O)NC(CC2CCN(C(=O)Oc3ccccc3)CC2)c2ccccc2)s1` (stereo not drawn) [Example 51, phenyl 4-(2-(5-methylthiophene-2-carboxamido)-2-phenylethyl)piperidine-1-carboxylate], the IC50 is 7.94 nM.

`CCOC(=O)N1CCC(CC(NC(=O)c2ccc(Cl)s2)c2nnc(N(CC)CC)o2)CC1` (stereo not drawn) [Example 45, ethyl 4-(2-(5-chlorothiophene-2-carboxamido)-2-(5-(diethylamino)-1,3,4-oxadiazol-2-yl)ethyl)piperidine-1-carboxylate]: the IC50 was 3.16 nM.

`CC(C)(C)OC(=O)N1CCC(CC(NC(=O)c2cccs2)c2ccccc2)CC1` (stereo not drawn) [Example 131, tert-butyl 4-(2-phenyl-2-(thiophene-2-carboxamido)ethyl)piperidine-1-carboxylate]: the IC50 was 50.1 nM.

Take `CC(C)(C)OC(=O)N1CCC(CC(NC(=O)c2ccc(F)cc2)c2ccc(OC3CCCCC3)nc2)CC1` (stereo not drawn) [Example 132, tert-butyl 4-(2-(6-(cyclohexyloxy)pyridin-3-yl)-2-(4-fluorobenzamido)ethyl)piperidine-1-carboxylate]: the IC50 is 50.1 nM.

Regarding `CC(C)(C)OC(=O)N1CCC(CC(NC(=O)c2cccc(F)c2)c2ccccc2)CC1` (stereo not drawn) [Example 146, tert-butyl 4-(2-(3-fluorobenzamido)-2-phenylethyl)piperidine-1-carboxylate], the IC50 is 79.4 nM.

Take `COc1cc(C(=O)NC(CC2CCN(C(=O)OC(C)(C)C)CC2)c2ccccc2)ccc1Cl` (stereo not drawn) [Example 161, tert-butyl 4-(2-(4-chloro-3-methoxybenzamido)-2-phenylethyl)piperidine-1-carboxylate]: the IC50 is 100 nM.

Consider `COc1ccc([C@H](CC2CCN(C(=O)Oc3ccccc3)CC2)NC(=O)c2ccc(Cl)s2)cn1` [Example 36, phenyl (S)-4-(2-(5-chlorothiophene-2-carboxamido)-2-(6-methoxypyridin-3-yl)ethyl)piperidine-1-carboxylate], for which the IC50 is 1.58 nM.

Turning to `CCOC(=O)N1CCC(C[C@H](NC(=O)c2ccc(CC)s2)c2ccccc2)CC1` [Example 66, (S)-ethyl 4-(2-(5-ethylthiophene-2-carboxamido)-2-phenylethyl)piperidine-1-carboxylate], the IC50 was 12.6 nM.

`CC(C)(C)COC(=O)N1CCC(CC(NC(=O)c2ccc(Cl)cc2)c2ccccc2)CC1` (stereo not drawn) [Example 187, neopentyl 4-(2-(4-chlorobenzamido)-2-phenylethyl)piperidine-1-carboxylate]: the IC50 is 158 nM.

Take `C=CC[C@H](CC1CCN(C(=O)OC(C)(C)C)CC1)NC(=O)c1ccc(Cl)s1` [Example 34, tert-butyl (R)-4-(2-(5-chlorothiophene-2-carboxamido)pent-4-en-1-yl)piperidine-1-carboxylate]: the IC50 was 3.98 nM.

In the case of `Cc1ccc(C(=O)NC(CC2CCN(C(=O)c3ccccc3)CC2)c2ccccc2)s1` (stereo not drawn) [Example 156, N-(2-(1-benzoylpiperidin-4-yl)-1-phenylethyl)-5-methylthiophene-2-carboxamide], the IC50 was 79.4 nM.

As for `CC(C)(C)OC(=O)N1CCC(CC(NC(=O)c2ccc(F)cc2)c2ccccc2)CC1` (stereo not drawn) [Example 107, tert-butyl 4-(2-(4-fluorobenzamido)-2-phenylethyl)piperidine-1-carboxylate], the IC50 was 31.6 nM.

For `O=C(NC(CC1CCN(C(=O)OC2CCCC2)CC1)c1ccccc1)c1ccc(Cl)cc1` (stereo not drawn) [Example 100, cyclopentyl 4-(2-(4-chlorobenzamido)-2-phenylethyl)piperidine-1-carboxylate], the IC50 is 25.1 nM.

For `CC(C)(C)OC(=O)N1CCC(CC(NC(=O)c2ccc(Cl)c(F)c2)c2ccccc2)CC1` (stereo not drawn) [Example 84, tert-butyl 4-(2-(4-chloro-3-fluorobenzamido)-2-phenylethyl)piperidine-1-carboxylate], the IC50 is 20 nM.

In the case of `CC(C)(C)OC(=O)N1CCC(CC(NC(=O)c2ccc(Cl)s2)C2CCCCC2)CC1` (stereo not drawn) [Example 64, tert-butyl 4-(2-(5-chlorothiophene-2-carboxamido)-2-cyclohexylethyl)piperidine-1-carboxylate], the IC50 was 12.6 nM.

As to `CC(C)NC(=O)N1CCC(CC(NC(=O)c2ccc(Cl)cc2)c2ccccc2)CC1` (stereo not drawn) [Example 184, 4-(2-(4-chlorobenzamido)-2-phenylethyl)-N-isopropylpiperidine-1-carboxamide], the IC50 was 158 nM.

Source of the values: US20210078988A1, “MODULATORS OF INDOLEAMINE 2,3-DIOXYGENASE” (GLAXOSMITHKLINE INTELLECTUAL PROPERTY DEVELOPMENT LIMITED, priority 2017, published 2021).
